Experimental data: paper PMC7317212 (Chemmedchem, 2020)

Experiments:
Type in all cases: cell-based
mGAT2 = biological target: T1, mGAT2 (Mus musculus, UniProt P31651); test: [^3H]GABA uptake assay, HEK293 cells expressing mGAT2; details: HEK293; in presence of 100 μM compound
T1 construct: expressed in transfected cells; host or cells: HEK293
T1 sequence (P31651 1-614): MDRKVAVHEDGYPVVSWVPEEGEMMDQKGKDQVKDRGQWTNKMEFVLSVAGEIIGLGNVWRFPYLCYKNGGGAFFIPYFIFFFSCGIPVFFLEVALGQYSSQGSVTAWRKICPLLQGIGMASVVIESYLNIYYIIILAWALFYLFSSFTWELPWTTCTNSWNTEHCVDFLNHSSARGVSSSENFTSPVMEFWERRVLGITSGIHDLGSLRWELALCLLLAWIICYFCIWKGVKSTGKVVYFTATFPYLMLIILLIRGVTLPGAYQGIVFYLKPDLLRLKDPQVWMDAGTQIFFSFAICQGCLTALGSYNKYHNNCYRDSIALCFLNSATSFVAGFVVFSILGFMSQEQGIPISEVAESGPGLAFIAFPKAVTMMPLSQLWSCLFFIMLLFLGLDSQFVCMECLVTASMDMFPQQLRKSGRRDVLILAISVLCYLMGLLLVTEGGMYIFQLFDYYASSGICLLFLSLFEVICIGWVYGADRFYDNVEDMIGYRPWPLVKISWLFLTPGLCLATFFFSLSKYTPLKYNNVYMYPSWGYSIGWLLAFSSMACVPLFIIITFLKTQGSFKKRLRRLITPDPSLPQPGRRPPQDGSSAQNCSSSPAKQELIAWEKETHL
Procedure, shortened: (§1)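 HEK293 cells expressing mouse GATs preincubated 25 min at 37 °C with compound in Krebs buffer pH 7.2, then [3H]GABA added: 8 nM plus 32 nM unlabeled for 4 min (mGAT1/3/4), 20 nM plus 20 nM for 10 min (mGAT2). Filtration, scintillation counting; nonspecific uptake with 10 mM (mGAT1/3/4) or 100 mM GABA (mGAT2); pIC50.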

mGAT3 = biological target: T2, mGAT3 (Mus musculus, UniProt P31649); test: [^3H]GABA uptake assay, HEK293 cells expressing mGAT3; details: [^3H]GABA uptake; pIC50±SEM
T2 construct: expressed in transfected cells; host or cells: HEK293
T2 sequence (P31649 1-602): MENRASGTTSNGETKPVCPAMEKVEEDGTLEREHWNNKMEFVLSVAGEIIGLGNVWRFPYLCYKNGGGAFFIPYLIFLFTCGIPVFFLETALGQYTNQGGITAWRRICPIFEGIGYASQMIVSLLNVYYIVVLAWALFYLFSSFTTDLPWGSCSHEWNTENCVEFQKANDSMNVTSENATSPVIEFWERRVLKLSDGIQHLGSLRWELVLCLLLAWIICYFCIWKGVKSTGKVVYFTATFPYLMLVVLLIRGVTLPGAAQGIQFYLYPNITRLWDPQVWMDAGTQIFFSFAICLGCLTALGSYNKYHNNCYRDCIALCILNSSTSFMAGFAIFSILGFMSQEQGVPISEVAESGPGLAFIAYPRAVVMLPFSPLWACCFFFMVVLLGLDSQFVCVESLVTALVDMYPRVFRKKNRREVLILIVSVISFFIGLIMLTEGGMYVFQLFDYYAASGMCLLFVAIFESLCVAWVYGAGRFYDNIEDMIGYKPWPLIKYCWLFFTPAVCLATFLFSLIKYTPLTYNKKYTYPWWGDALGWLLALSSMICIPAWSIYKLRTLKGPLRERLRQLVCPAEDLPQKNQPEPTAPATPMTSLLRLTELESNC
Procedure, shortened: as §1

mGAT4 = biological target: T3, mGAT4 (Mus musculus, UniProt P31650); test: [^3H]GABA uptake assay, HEK293 cells expressing mGAT4; details: [^3H]GABA uptake; pIC50±SEM
T3 construct: expressed in transfected cells; host or cells: HEK293
T3 sequence (P31650 1-627): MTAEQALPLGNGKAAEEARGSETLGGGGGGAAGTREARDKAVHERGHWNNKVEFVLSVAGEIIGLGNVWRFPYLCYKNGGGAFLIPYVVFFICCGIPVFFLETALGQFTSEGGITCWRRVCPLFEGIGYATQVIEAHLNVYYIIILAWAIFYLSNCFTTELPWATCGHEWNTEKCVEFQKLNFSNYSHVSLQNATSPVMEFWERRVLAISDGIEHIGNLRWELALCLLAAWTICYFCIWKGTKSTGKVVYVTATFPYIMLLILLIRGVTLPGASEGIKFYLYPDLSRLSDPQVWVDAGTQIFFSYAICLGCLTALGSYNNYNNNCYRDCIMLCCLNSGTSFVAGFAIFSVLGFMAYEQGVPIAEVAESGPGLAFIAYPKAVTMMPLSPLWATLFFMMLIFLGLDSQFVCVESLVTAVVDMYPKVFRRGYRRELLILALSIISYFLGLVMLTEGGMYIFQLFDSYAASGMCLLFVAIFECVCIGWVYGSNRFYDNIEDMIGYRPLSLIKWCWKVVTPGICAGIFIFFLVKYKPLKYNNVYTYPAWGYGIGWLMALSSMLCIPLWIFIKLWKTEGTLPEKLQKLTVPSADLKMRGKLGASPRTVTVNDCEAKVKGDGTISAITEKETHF
Procedure, shortened: as §1

remaining activity at 100 µM (mGAT2): 66.3%
IC50 (mGAT3): 10.5 µM
IC50 (mGAT4): 1.7 µM
Compound: COc1ccc(C(OCCN2CCCC(C(=O)O)C2)(c2ccc(C=O)cc2)c2ccc(OC)cc2)cc1 (racemic) [5 a, rac‐ 1‐{2‐[(4‐Formylphenyl)bis(4‐methoxyphenyl)methoxy]ethyl}piper‐idine‐3‐carboxylic acid]
